This is an account of results in patent US9790233B2, “Compositions and methods of modulating 15-PGDH activity” (CASE WESTERN RESERVE UNIVERSITY, priority 2012, dated 2017).

Read-outs that look alike come from different tables or passages of the source.

Holding throughout (assay type): cell-based
Experiment [1] relates to 15-PGDH luciferase fusion construct in LS174T reporter cell line. The experiment can be described thus: 15-PGDH-luciferase fusion gene reporter induction, LS174T cells. The settings on record: Homo sapiens.
Experiment [2] has as its system 15-PGDH luciferase fusion construct in Vaco503 reporter cell line. The experiment can be described thus: 15-PGDH-luciferase fusion gene reporter induction, V503 cells.
Experiment [3] relates to 15-PGDH luciferase fusion construct in V9m reporter cell line. The experiment can be described thus: 15-PGDH-luciferase fusion gene reporter induction, V9m cells.
The mark [4] stands for this setting: read-out: LS174T reporter activity ([…]), […], % induction over basal level, Table 17, read-out: LS174T reporter activity (2.5 μM).
Where [5] appears, read: read-out: lS174T reporter activity ([…]), […], % induction over basal level, Table 17, read-out: lS174T reporter activity (7.5 μM).
Setting [6] is: read-out: V503 reporter activity ([…]), […], % induction over basal level, Table 17, read-out: V503 reporter activity (2.5 μM).
Where [7] appears, read: read-out: V503 reporter activity ([…]), […], % induction over basal level, Table 17, read-out: V503 reporter activity (7.5 μM).
The mark [8] stands for this setting: read-out: V9M reporter activity ([…]), […], % induction of luciferase activity over basal level, Table 17, read-out: V9M reporter activity (2.5 μM).
The mark [9] stands for this setting: read-out: V9M reporter activity ([…]), […], % induction over basal level, Table 17, read-out: V9M reporter activity (7.5 μM).
The mark [10] stands for this setting: read-out: Ls174T-SC1 reporter activity, % ([…]), LS174T reporter cells, […] compound, % induction of luciferase activity over basal level, read-out: Ls174T-SC1 reporter activity, % (2.5 μM).
The mark [11] stands for this setting: read-out: Ls174T-SC1 reporter activity, % ([…]), LS174T reporter cells, […] compound, % induction of luciferase activity over basal level, read-out: Ls174T-SC1 reporter activity, % (7.5 μM).
[12] abbreviates: read-out: V503-3H9-7 reporter activity, % ([…]), V503 reporter cells, […] compound, % induction of luciferase activity over basal level, read-out: V503-3H9-7 reporter activity, % (2.5 μM).
The mark [13] stands for this setting: read-out: V503-3H9-7 reporter activity, % ([…]), V503 reporter cells, […] compound, % induction of luciferase activity over basal level, read-out: V503-3H9-7 reporter activity, % (7.5 μM).
Setting [14] is: read-out: V9M-SC3 Reporter activity ([…]) (%), V9m reporter cells, […] compound, % induction of luciferase activity over basal level, read-out: V9M-SC3 Reporter activity (2.5 μM) (%).
Where [15] appears, read: read-out: V9M-SC3 Reporter activity ([…]), %, V9m reporter cells, […] compound, % induction of luciferase activity over basal level, read-out: V9M-SC3 Reporter activity (7.5 μM), %.
Where [16] appears, read: read-out: LS174T reporter activity ([…]), […], % increased luciferase activity over basal level, read-out: LS174T reporter activity (2.5 uM).
[17] abbreviates: read-out: LS174T reporter activity ([…]), […], % increased luciferase activity over basal level, read-out: LS174T reporter activity (7.5 uM).
Where [18] appears, read: read-out: V503 reporter activity ([…]), […], % increased luciferase activity over basal level, read-out: V503 reporter activity (2.5 uM).
The mark [19] stands for this setting: read-out: V503 reporter activity ([…]), […], % increased luciferase activity over basal level, read-out: V503 reporter activity (7.5 uM).
Where [20] appears, read: read-out: V9M reporter activity ([…]), […], % increased luciferase activity over basal level, 100 = doubling, read-out: V9M reporter activity (2.5 uM).
Where [21] appears, read: read-out: V9M reporter activity ([…]), […], % increased luciferase activity over basal level, 100 = doubling, read-out: V9M reporter activity (7.5 uM).

Regarding `COc1ccc(OC)c(N(CC(=O)Nc2ccccc2F)S(=O)(=O)c2ccccc2)c1` [compound 503270], the activation at […] in experiment [1] (setting [4]) is 12.3%; in experiment [1] (setting [5]), 32.8%; in experiment [2] (setting [6]) it was 29.9%; in experiment [2] (setting [7]) it was 42.1%; in experiment [3] (setting [8]) it was -4.47%; in experiment [3] (setting [9]) it was 24.1%.
In the case of `COc1ccc(OC)c(N(CC(=O)N2CCCCC2)S(=O)(=O)c2ccccc2)c1` [SW131633], the activation at […] is 8.42% in experiment [1] (setting [10]); 150% in experiment [1] (setting [11]); 104% in experiment [2] (setting [12]); -40.6% in experiment [2] (setting [13]); 77.2% in experiment [3] (setting [14]); 141% in experiment [3] (setting [15]).
With `COc1ccc(OC)c(N(CC(=O)Nc2ccccc2OC)S(=O)(=O)c2ccccc2)c1` [SW202965], the activation at […] was -23.5% in experiment [1] (setting [10]); 3.52% in experiment [1] (setting [11]); 23.8% in experiment [2] (setting [12]); 98.1% in experiment [2] (setting [13]); -30.9% in experiment [3] (setting [14]); -25.8% in experiment [3] (setting [15]).
Regarding `NC(=O)c1sc2nc(-c3cccs3)cc(-c3ccc(F)cc3)c2c1N` [compound 980653], the activation at […] in experiment [1] (setting [16]) is 5.76%; in experiment [1] (setting [17]), 11%; in experiment [2] (setting [18]) it was -10.5%; in experiment [2] (setting [19]) it was -15.2%; in experiment [3] (setting [20]), 8.83%; in experiment [3] (setting [21]), 12%.
For the compound `COc1ccc(OC)c(N(CC(=O)Nc2ccccc2Br)S(=O)(=O)c2ccc(C)cc2)c1` [compound 771132], the activation at […] in experiment [1] (setting [4]) is 14%; in experiment [1] (setting [5]) it was 13.5%; in experiment [2] (setting [6]) it was 24.8%; in experiment [2] (setting [7]), 40.8%; in experiment [3] (setting [8]) it was -2.26%; in experiment [3] (setting [9]), 12.2%.
For the compound `COc1ccc(OC)c(N(CC(=O)Nc2cc(C)cnc2Cl)S(=O)(=O)c2ccccc2)c1` [SW202972], the activation at […] was -17.4% in experiment [1] (setting [10]); 16.6% in experiment [1] (setting [11]); 39.4% in experiment [2] (setting [12]); 100% in experiment [2] (setting [13]); -15.4% in experiment [3] (setting [14]); 0.14% in experiment [3] (setting [15]).
Take `COc1ccc(Cl)cc1N(CC(=O)Nc1cccnc1)S(=O)(=O)c1ccccc1` [328012−52−8]: the activation at […] was 128% in experiment [1] (read-out: Ls174T-SC1 reporter activity, % ([…]), […], Table 18, read-out: Ls174T-SC1 reporter activity, % (2.5 μM)); 176% in experiment [1] (read-out: Ls174T-SC1 reporter activity, % ([…]), […], Table 18, read-out: Ls174T-SC1 reporter activity, % (7.5 μM)); 243% in experiment [2] (read-out: V503-3H9-7 reporter activity, % ([…]), […], Table 18, read-out: V503-3H9-7 reporter activity, % (2.5 μM)); -4.89% in experiment [2] (read-out: V503-3H9-7 reporter activity, % ([…]), […], Table 18, read-out: V503-3H9-7 reporter activity, % (7.5 μM)); -15.4% in experiment [3] (read-out: V9M-SC3 Reporter activity ([…]) (%), […], Table 18, read-out: V9M-SC3 Reporter activity (2.5 μM) (%)).
`COc1ccc(OC)c(N(CC(=O)Nc2cccnc2)S(=O)(=O)c2c(C)cc(C)cc2C)c1` [SW202953]: the activation at […] in experiment [1] (setting [10]) worked out at 20.7%; in experiment [1] (setting [11]) it was 30.7%; in experiment [2] (setting [12]) it was 32%; in experiment [2] (setting [13]) it was 50.9%; in experiment [3] (setting [14]), 13%; in experiment [3] (setting [15]), 34.8%.
`CCCNC(=O)c1sc2nc(-c3cccs3)cc(-c3ccccc3)c2c1N` [SW206977, 3-amino-4-phenyl-N-propyl-6-(thiophen-2-yl)thieno[2,3-b]pyridine-2-carboxamide]: the activation at […] was 34.9% in experiment [1] (setting [16]); 29.4% in experiment [1] (setting [17]); 33% in experiment [2] (setting [18]); 37.6% in experiment [2] (setting [19]); 3.5% in experiment [3] (setting [20]); 0.45% in experiment [3] (setting [21]).
On to `COc1ccc(OC)c(N(CC(=O)Nc2cccnc2)C(C)=O)c1` [SW202952], for which the activation at […] in experiment [1] (setting [10]) was -10.3%; in experiment [1] (setting [11]) it was 10.6%; in experiment [2] (setting [12]), 26.2%; in experiment [2] (setting [13]), 7.16%; in experiment [3] (setting [14]) it was -20.7%; in experiment [3] (setting [15]) it was -19.5%.
For the compound `COc1ccc(OC)c(N(CC(=O)Nc2cnccc2C)S(=O)(=O)c2ccccc2)c1` [SW202967], the activation at […] was -11.7% in experiment [1] (setting [10]); 9.37% in experiment [1] (setting [11]); 34% in experiment [2] (setting [12]); 69.6% in experiment [2] (setting [13]); -16% in experiment [3] (setting [14]); 0% in experiment [3] (setting [15]).
For the compound `COc1ccc(N(CC(=O)Nc2ccc(C(C)=O)cc2)S(=O)(=O)c2ccccc2)cc1Cl` [compound 539430], the activation at […] is 5.62% in experiment [1] (setting [4]); 10.4% in experiment [1] (setting [5]); 38.8% in experiment [2] (setting [6]); 103% in experiment [2] (setting [7]); 21.3% in experiment [3] (setting [8]); 21.4% in experiment [3] (setting [9]).
In the case of `COc1ccc(OC)c(N(CC(=O)Nc2ccnc(C)c2)S(=O)(=O)c2ccccc2)c1` [SW202966], the activation at […] is 1.82% in experiment [1] (setting [10]); 78.2% in experiment [1] (setting [11]); 115% in experiment [2] (setting [12]); 249% in experiment [2] (setting [13]); -0.84% in experiment [3] (setting [14]); 67.7% in experiment [3] (setting [15]).
For the compound `COc1ccc(OC)c(N(CC(=O)OC(C)C)S(=O)(=O)c2ccccc2)c1` [SW202971], the activation at […] is -7.91% in experiment [1] (setting [10]); 34.5% in experiment [1] (setting [11]); 85.5% in experiment [2] (setting [12]); 169% in experiment [2] (setting [13]); -14.5% in experiment [3] (setting [14]); 9.67% in experiment [3] (setting [15]).
For the compound `COc1ccc(OC)c(N(CC(=O)Nc2cccnc2)S(=O)(=O)c2ccccc2F)c1` [SW202947], the activation at […] in experiment [1] (setting [10]) is 52%; in experiment [1] (setting [11]), 21.2%; in experiment [2] (setting [12]) it was 143%; in experiment [2] (setting [13]) it was 97.8%; in experiment [3] (setting [14]) it was 21.9%; in experiment [3] (setting [15]) it was 2.57%.
In the case of `O=C(CN(c1ccccc1)S(=O)(=O)c1ccccc1)Nc1ccccn1` [compound 414183], the activation at […] in experiment [1] (setting [4]) was 5.35%; in experiment [1] (setting [5]) it was -4.77%; in experiment [2] (setting [6]) it was 11.5%; in experiment [2] (setting [7]) it was 37.2%; in experiment [3] (setting [8]), -9.15%; in experiment [3] (setting [9]), -3.89%.
As for `COc1ccc(OC)c(N(CC(=O)Nc2ccnc(Cl)c2)S(=O)(=O)c2ccccc2)c1` [SW202946], the activation at […] is 105% in experiment [1] (setting [10]); -23.6% in experiment [1] (setting [11]); 137% in experiment [2] (setting [12]); 34.3% in experiment [2] (setting [13]); 64.6% in experiment [3] (setting [14]); -41.5% in experiment [3] (setting [15]).
`CCOC(=O)c1sc2nc(-c3cccs3)cc(-c3ccccc3)c2c1N` [SW206978, Ethyl 3-amino-4-phenyl-6-(thiophen-2-yl)thieno[2,3-b]pyridine-2-carboxylate]: the activation at […] in experiment [1] (setting [16]) is 31.4%; in experiment [1] (setting [17]), 26.2%; in experiment [2] (setting [18]) it was 38.8%; in experiment [2] (setting [19]) it was 35.8%; in experiment [3] (setting [20]), 7.51%; in experiment [3] (setting [21]), 8.02%.
`COc1ccc(OC)c(CN(CC(=O)Nc2cccnc2)S(=O)(=O)c2ccccc2)c1` [SW203688]: the activation at […] was 12.6% in experiment [1] (setting [10]); 14.8% in experiment [1] (setting [11]); -28.1% in experiment [2] (setting [12]); -99.5% in experiment [2] (setting [13]); 12.1% in experiment [3] (setting [14]); 6.04% in experiment [3] (setting [15]).
Turning to `CCCCSc1ncccc1N` [SW208068, 2-(butylthio)pyridin-3-amine], the activation at […] in experiment [1] (setting [16]) was determined as 14.9%; in experiment [1] (setting [17]), 15%; in experiment [2] (setting [18]), 14.9%; in experiment [2] (setting [19]) it was 15%; in experiment [3] (setting [20]), 12.9%; in experiment [3] (setting [21]), 12.3%.
